# Results published in US20020137929A1, “1 - (3-heterocyclylphenyl) isothiourea, -isourea, -guanidine and -amidine herbicidal agents” (Intellectual Property Department, BASF Aktiengesellschaft, priority 1998, published 2002).
# Tests used:
# ABUTH (Velvetleaf) = assay: Postemergence herbicidal evaluation; type: in vivo, Abutilon theophrasti
# Description: (§1) In the tests, seedling plants are grown in jiffy flats for about two weeks. The test compounds are dispersed in 50/50 acetone/water mixtures containing 0.5% TWEEN®20, a polyoxyethylene sorbitan monolaurate surfactant of Atlas Chemical Industries, in sufficient quantities to provide the equivalent of about 0.0156 kg to 0.500 kg per hectare of active compound when applied to the plants through a spray nozzle operating at 40 psi for a predetermined time. After spraying, the plants are placed on greenhouse benches and are cared for in accordance with conventional greenhouse procedures. From four to five weeks after treatment, the seedling plants are examined and rated according to the rating system set forth below. Where more than one test is involved for a given compound, the data are averaged.
# (§2) Plant species employed in these evaluations are reported by header abbreviation, common name and scientific name.
# (§3) Results of herbicide evaluation are expressed on a rating scale (0-9). The scale is based upon a visual observation of plant stand, vigor, malformation, size, chlorosis and overall plant appearance as compared with a control.
# AMBEL (Ragweed, Common) = assay: Postemergence herbicidal evaluation; type: in vivo, Ambrosia artemisifolia
# Description: as §1, §2, §3
# CASOB (Sicklepod) = assay: Postemergence herbicidal evaluation; type: in vivo, Cassia obtusifolia
# Description: as §1, §2, §3
# [1] = tested on: CHEAL (Lambsquarters, Common); assay: Postemergence herbicidal evaluation; type: in vivo, Chenopodium album
# Description: as §1, §2, §3
# GALAP (Galium) = assay: Postemergence herbicidal evaluation; type: in vivo, Galium aparine
# Description: as §1, §2, §3
# [2] = tested on: IPOHE (Morningglory, Ivyleaf); assay: Postemergence herbicidal evaluation; type: in vivo, Ipomoea hederacea
# Description: as §1, §2, §3
# ECHCG (Barnyardgrass) = assay: Postemergence herbicidal evaluation; type: in vivo, Echinochloa crus-galli
# Description: as §1, §2, §3
# SETVI (Foxtail, Green) = assay: Postemergence herbicidal evaluation; type: in vivo, Setaria viridis
# Description: as §1, §2, §3
# [3] = tested on: GLXMAW (Soybean, Williams); assay: Postemergence herbicidal evaluation; type: in vivo, Glycine max, (L.) Merr. cv Williams
# Description: as §1, §2, §3
# ORYSAT (Rice, Tebonnet) = assay: Postemergence herbicidal evaluation; type: in vivo, Oryza sativa, (L.) Tebonnet
# Description: as §1, §2, §3
# [4] = tested on: TRZAWR (Wheat, Winter, cv Riband); assay: Postemergence herbicidal evaluation; type: in vivo, Triticum aestivum
# Description: as §1, §2, §3
# ZEAMX (Corn, Field) = assay: Postemergence herbicidal evaluation; type: in vivo, Zea mays
# Description: as §1, §2, §3
# [5] = tested on: ECHORC (Watergrass (Calif.)); assay: Preemergence weed control under flooded paddy conditions; type: in vivo, Echinochloa oryzoides; details: rated 3-4 weeks after treatment
# Description: as §3
# (§4) Preemergence herbicidal activity under flooded paddy conditions is determined as follows: plant seeds or propagating organs are planted in the top 0.5 cm of silt loam soil in 32 oz. plastic containers with a diameter of 10.5 cm and no drainage holes. Water is added to these containers and maintained at 1.5 to 3 cm above the soil surface for the duration of the experiment. The test compounds are applied as aqueous/acetone mixtures 50/50 v/v pipetted directly into the flood water to give the equivalent of about 0.0313 to 0.500 kg/ha of active ingredient. The treated containers are placed on greenhouse benches and cared for in accordance with conventional greenhouse procedures. Three to four weeks after treatment, the test is terminated and each container is examined and herbicidal effect rated according to the rating system provided in Example 37. The compounds evaluated are reported by compound number given in Example 37.
# (§5) Plant species employed in this example are reported by header abbreviation, common name and scientific name.
# CYPIR (Rice Flatsedge) [6] = assay: as above; type: in vivo, Cyperus iria; details: rated 3-4 weeks after treatment
# Description: as §3, §4, §5
# CYPSE (Flatsedge) [7] = assay: as above; type: in vivo, Cyperus serotinus; details: rated 3-4 weeks after treatment
# Description: as §3, §4, §5
# MOOVA (Monochoria) [8] = assay: as above; type: in vivo, Monochoria vaginalis; details: rated 3-4 weeks after treatment
# Description: as §3, §4, §5
# [9] = tested on: SAGPY (Arrowhead (Pygmaea)); assay: as above; type: in vivo, Sagittaria pygmaea; details: rated 3-4 weeks after treatment
# Description: as §3, §4, §5
# [10] = tested on: ECHORC (Watergrass (Calif.)); assay: Postemergence weed control under flooded paddy conditions; type: in vivo, Echinochloa oryzoides; details: postemergence weeds, 3-4 weeks after treatment
# Source text: as §3
# (§6) Plastic containers containing weeds which are 3 to 5 cm tall and rice seedlings at the 1.5 to 2.5 leaf stage are flooded with water. The water is maintained at 1.5 to 3 cm above the soil surface for the duration of the experiment. Test compounds are applied as aqueous/ acetone mixtures 50/50 v/v directly into the flood water to provide the equivalent of about 0.0313 to 0.500 kg/ha of active ingredient. The treated containers are placed on greenhouse benches and cared for in accordance with conventional greenhouse procedures. Three to four weeks after treatment, the test is terminated and each container is examined and herbicidal effect rated according to the rating system provided in Example 37. The compounds evaluated are reported by compound number given in Example 37.
# CYPIR (Rice Flatsedge) [11] = assay: as above; type: in vivo, Cyperus iria; details: postemergence weeds, 3-4 weeks after treatment
# Source text: as §3, §6
# CYPSE (Flatsedge) [12] = assay: as above; type: in vivo, Cyperus serotinus; details: postemergence weeds, 3-4 weeks after treatment
# Source text: as §3, §6
# MOOVA (Monochoria) [13] = assay: as above; type: in vivo, Monochoria vaginalis; details: postemergence weeds, 3-4 weeks after treatment
# Source text: as §3, §6
# [14] = tested on: SAGPY (Arrowhead (Pygmaea)); assay: as above; type: in vivo, Sagittaria pygmaea; details: postemergence weeds, 3-4 weeks after treatment
# Source text: as §3, §6
compound,measurement,setting,value
"CCOC(=O)CN1C(=O)C(CC(N)=O)S/C1=N/c1cc(-n2c(=O)cc(C(F)(F)F)n(C)c2=O)c(F)cc1Cl (stereo not shown) [Compound 56, Ethyl 5-(carbamoylmethyl)-2-{{2-chloro-5-[3,6-dihydro-3-methyl-2,6-dioxo-4-(trifluoromethyl)-1(2H)-pyrimidinyl]-4-fluorophenyl}imino}-4-oxo-3-thiazolidineacetate]",Postemergence herbicidal rating ABUTH,ABUTH (Velvetleaf); Rate 0.0158 kg/ha,9.0
same,Postemergence herbicidal rating ABUTH,ABUTH (Velvetleaf); Rate 0.0315 kg/ha,9.0
same,Postemergence herbicidal rating ABUTH,ABUTH (Velvetleaf); Rate 0.0630 kg/ha,9.0
same,Postemergence herbicidal rating AMBEL,"AMBEL (Ragweed, Common); Rate 0.0158 kg/ha",9.0
same,Postemergence herbicidal rating AMBEL,"AMBEL (Ragweed, Common); Rate 0.0315 kg/ha",9.0
same,Postemergence herbicidal rating AMBEL,"AMBEL (Ragweed, Common); Rate 0.0630 kg/ha",9.0
same,Postemergence herbicidal rating CASOB,CASOB (Sicklepod); Rate 0.0158 kg/ha,4.0
same,Postemergence herbicidal rating CASOB,CASOB (Sicklepod); Rate 0.0315 kg/ha,4.0
same,Postemergence herbicidal rating CASOB,CASOB (Sicklepod); Rate 0.0630 kg/ha,9.0
same,Postemergence herbicidal rating CHEAL,[1]; Rate 0.0158 kg/ha,9.0
same,Postemergence herbicidal rating CHEAL,[1]; Rate 0.0315 kg/ha,9.0
same,Postemergence herbicidal rating CHEAL,[1]; Rate 0.0630 kg/ha,9.0
same,Postemergence herbicidal rating GALAP,GALAP (Galium); Rate 0.0158 kg/ha,3.0
same,Postemergence herbicidal rating GALAP,GALAP (Galium); Rate 0.0315 kg/ha,6.0
same,Postemergence herbicidal rating GALAP,GALAP (Galium); Rate 0.0630 kg/ha,9.0
same,Postemergence herbicidal rating IPOHE,[2]; Rate 0.0158 kg/ha,9.0
same,Postemergence herbicidal rating IPOHE,[2]; Rate 0.0315 kg/ha,9.0
same,Postemergence herbicidal rating IPOHE,[2]; Rate 0.0630 kg/ha,9.0
same,Postemergence herbicidal rating ECHCG,ECHCG (Barnyardgrass); Rate 0.0158 kg/ha,2.0
same,Postemergence herbicidal rating ECHCG,ECHCG (Barnyardgrass); Rate 0.0315 kg/ha,2.0
same,Postemergence herbicidal rating ECHCG,ECHCG (Barnyardgrass); Rate 0.0630 kg/ha,3.0
same,Postemergence herbicidal rating SETVI,"SETVI (Foxtail, Green); Rate 0.0158 kg/ha",6.0
same,Postemergence herbicidal rating SETVI,"SETVI (Foxtail, Green); Rate 0.0315 kg/ha",6.0
same,Postemergence herbicidal rating SETVI,"SETVI (Foxtail, Green); Rate 0.0630 kg/ha",7.0
same,Postemergence herbicidal rating GLXMAW,[3]; Rate 0.0158 kg/ha,7.0
same,Postemergence herbicidal rating GLXMAW,[3]; Rate 0.0315 kg/ha,7.5
same,Postemergence herbicidal rating GLXMAW,[3]; Rate 0.0630 kg/ha,8.0
same,Postemergence herbicidal rating ORYSAT,"ORYSAT (Rice, Tebonnet); Rate 0.0158 kg/ha",1.5
same,Postemergence herbicidal rating ORYSAT,"ORYSAT (Rice, Tebonnet); Rate 0.0315 kg/ha",2.0
same,Postemergence herbicidal rating ORYSAT,"ORYSAT (Rice, Tebonnet); Rate 0.0630 kg/ha",2.5
same,Postemergence herbicidal rating TRZAWR,[4]; Rate 0.0158 kg/ha,4.0
same,Postemergence herbicidal rating TRZAWR,[4]; Rate 0.0315 kg/ha,4.5
same,Postemergence herbicidal rating TRZAWR,[4]; Rate 0.0630 kg/ha,5.0
same,Postemergence herbicidal rating ZEAMX,"ZEAMX (Corn, Field); Rate 0.0158 kg/ha",5.0
same,Postemergence herbicidal rating ZEAMX,"ZEAMX (Corn, Field); Rate 0.0315 kg/ha",5.5
same,Postemergence herbicidal rating ZEAMX,"ZEAMX (Corn, Field); Rate 0.0630 kg/ha",6.5
same,Herbicidal rating ECHORC,[5]; 0.0313 kg/ha,0.0
same,Herbicidal rating ECHORC,[5]; 0.0625 kg/ha,0.0
same,Herbicidal rating ECHORC,[5]; 0.1250 kg/ha,3.0
same,Herbicidal rating ECHORC,[5]; 0.2500 kg/ha,5.0
same,Herbicidal rating CYPIR,CYPIR (Rice Flatsedge) [6]; 0.0313 kg/ha,0.0
same,Herbicidal rating CYPIR,CYPIR (Rice Flatsedge) [6]; 0.0625 kg/ha,0.0
same,Herbicidal rating CYPIR,CYPIR (Rice Flatsedge) [6]; 0.1250 kg/ha,0.0
same,Herbicidal rating CYPIR,CYPIR (Rice Flatsedge) [6]; 0.2500 kg/ha,0.0
same,Herbicidal rating CYPSE,CYPSE (Flatsedge) [7]; 0.0313 kg/ha,0.0
same,Herbicidal rating CYPSE,CYPSE (Flatsedge) [7]; 0.0625 kg/ha,0.0
same,Herbicidal rating CYPSE,CYPSE (Flatsedge) [7]; 0.1250 kg/ha,0.0
same,Herbicidal rating CYPSE,CYPSE (Flatsedge) [7]; 0.2500 kg/ha,0.0
same,Herbicidal rating MOOVA,MOOVA (Monochoria) [8]; 0.0313 kg/ha,6.0
same,Herbicidal rating MOOVA,MOOVA (Monochoria) [8]; 0.0625 kg/ha,6.0
same,Herbicidal rating MOOVA,MOOVA (Monochoria) [8]; 0.1250 kg/ha,9.0
same,Herbicidal rating MOOVA,MOOVA (Monochoria) [8]; 0.2500 kg/ha,9.0
same,Herbicidal rating SAGPY,[9]; 0.0313 kg/ha,0.0
same,Herbicidal rating SAGPY,[9]; 0.0625 kg/ha,0.0
same,Herbicidal rating SAGPY,[9]; 0.1250 kg/ha,0.0
same,Herbicidal rating SAGPY,[9]; 0.2500 kg/ha,0.0
same,Herbicidal rating ECHORC,[10]; rate 0.0313 kg/ha,0.0
same,Herbicidal rating ECHORC,[10]; rate 0.0625 kg/ha,0.0
same,Herbicidal rating ECHORC,[10]; rate 0.1250 kg/ha,3.0
same,Herbicidal rating ECHORC,[10]; rate 0.2500 kg/ha,5.0
same,Herbicidal rating CYPIR,CYPIR (Rice Flatsedge) [11]; rate 0.0313 kg/ha,0.0
same,Herbicidal rating CYPIR,CYPIR (Rice Flatsedge) [11]; rate 0.0625 kg/ha,0.0
same,Herbicidal rating CYPIR,CYPIR (Rice Flatsedge) [11]; rate 0.1250 kg/ha,0.0
same,Herbicidal rating CYPIR,CYPIR (Rice Flatsedge) [11]; rate 0.2500 kg/ha,0.0
same,Herbicidal rating CYPSE,CYPSE (Flatsedge) [12]; rate 0.0313 kg/ha,0.0
same,Herbicidal rating CYPSE,CYPSE (Flatsedge) [12]; rate 0.0625 kg/ha,0.0
same,Herbicidal rating CYPSE,CYPSE (Flatsedge) [12]; rate 0.1250 kg/ha,0.0
same,Herbicidal rating CYPSE,CYPSE (Flatsedge) [12]; rate 0.2500 kg/ha,0.0
same,Herbicidal rating MOOVA,MOOVA (Monochoria) [13]; rate 0.0313 kg/ha,6.0
same,Herbicidal rating MOOVA,MOOVA (Monochoria) [13]; rate 0.0625 kg/ha,6.0
same,Herbicidal rating MOOVA,MOOVA (Monochoria) [13]; rate 0.1250 kg/ha,9.0
same,Herbicidal rating MOOVA,MOOVA (Monochoria) [13]; rate 0.2500 kg/ha,9.0
same,Herbicidal rating SAGPY,[14]; rate 0.0313 kg/ha,0.0
same,Herbicidal rating SAGPY,[14]; rate 0.0625 kg/ha,0.0
same,Herbicidal rating SAGPY,[14]; rate 0.1250 kg/ha,0.0
same,Herbicidal rating SAGPY,[14]; rate 0.2500 kg/ha,0.0
